According to patent EP0748335B1, “ANTIBIOTIC STALOBACINS” (SHIONOGI & CO., LTD., priority 1994, dated 1995):
Converted amounts (≈) assume the structure as drawn.

How the values were obtained:
S. aureus 3626 (MRSA) = test: In vitro antibacterial activity, agar dilution method; format: cell-based; details: 10^6 cfu/ml
Experimental: (§1) Antibacterial activity in vitro of antibiotic stalobacins H and I obtained in Example 1 was assayed by the agar dilution method.

S. aureus FDA JC-1 = test: as above; format: cell-based; details: 10^6 cfu/ml
Experimental: as §1

S. faecalis SR1004 = test: as above; format: cell-based; details: 10^6 cfu/ml
Experimental: as §1

E. faecalis SR1004 [1] = test: Protective effect in systemically infected mice; format: in vivo; details: mice challenged intraperitoneally with E. faecalis SR1004; subcutaneous administration one hour after challenge; survival ratio on 7th day
Experimental: (§2) Antibacterial activity in vivo of stalobacin I was assayed. Mice were intraperitoneally challenged with infectious bacteria. One hour after the challenge, the test compound was subcutaneously administered. ED50 values was calculated on the basis of survival ratio on 7th day after the challenge. MIC was determined according to the agar dilution method.

[2] = tested on: S. aureus SR3637 (H-MRSA); test: Protective effect in systemically infected mice; format: in vivo; details: mice challenged intraperitoneally with S. aureus SR3637 (H-MRSA); subcutaneous administration one hour after challenge; survival ratio on 7th day
Experimental: as §2

S. pneumoniae Type I [3] = test: Protective effect in systemically infected mice; format: in vivo; details: mice challenged intraperitoneally with S. pneumoniae Type I; subcutaneous administration one hour after challenge; survival ratio on 7th day
Experimental: as §2

E. faecalis SR1004 [4] = format: cell-based
Experimental: as §2

[5] = tested on: S. aureus SR3637 (H-MRSA); format: cell-based
Experimental: as §2

S. pneumoniae Type I [6] = format: cell-based
Experimental: as §2

With CCCCCC/C=C\CCCCC[C@@H]1C[C@H]1/C=C/C(O)C(=O)N[C@H](C(=O)N(C)[C@@H](CC(=O)O)C(=O)N(COC(C)(CC)C(NC(=O)C(NC(=O)[C@@H](N)CC(=O)O)C(O)C(O)CNC(=N)N)C(=O)NCC(=O)N[C@@H](CO)C(=O)O)[C@@]12C[C@@H]1CN(C(=N)N)C2=O)[C@H](O)C(=O)O (stereo partly drawn) [Stalobacin I] the “Antibacterial activity in vitro” value (S. aureus 3626 (MRSA)) was 0.1 µg/mL, the “Antibacterial activity in vitro” value (S. aureus FDA JC-1) was 0.05 µg/mL and the “Antibacterial activity in vitro” value (S. faecalis SR1004) was 0.2 µg/mL. It also gave an ED50 (E. faecalis SR1004 [1]) of 1.50 mg/kg, an ED50 [2] of 0.12 mg/kg and an ED50 (S. pneumoniae Type I [3]) of 0.046 mg/kg. The MIC (E. faecalis SR1004 [4]) was 0.2 mg/L (≈ 151 nM), the MIC [5] was 0.012 mg/L (≈ 9.05 nM) and the MIC (S. pneumoniae Type I [6]) was 0.006 mg/L (≈ 4.53 nM).
